Measurements reported in patent US8962837B2, “Nitrogen heterocycle derivatives, preparation thereof and application thereof in human therapeutics” (Pierre Fabre Medicament, priority 2010, dated 2015).
Read-outs that look alike come from different tables or passages of the source.

How the values were obtained:
[1] = molecular target: Human SCD-1 (Homo sapiens (Human), UniProt O00767); assay: Human SCD-1 enzyme activity using HepG2 cell microsomes (conversion of stearic acid to oleic acid); format: biochemical; conditions: 20 minutes at 37° C., relative to 0.1% DMSO vehicle, read-out: HSCD-1 (HEPG2) IC50
Chain of Human SCD-1 (O00767 whole entry): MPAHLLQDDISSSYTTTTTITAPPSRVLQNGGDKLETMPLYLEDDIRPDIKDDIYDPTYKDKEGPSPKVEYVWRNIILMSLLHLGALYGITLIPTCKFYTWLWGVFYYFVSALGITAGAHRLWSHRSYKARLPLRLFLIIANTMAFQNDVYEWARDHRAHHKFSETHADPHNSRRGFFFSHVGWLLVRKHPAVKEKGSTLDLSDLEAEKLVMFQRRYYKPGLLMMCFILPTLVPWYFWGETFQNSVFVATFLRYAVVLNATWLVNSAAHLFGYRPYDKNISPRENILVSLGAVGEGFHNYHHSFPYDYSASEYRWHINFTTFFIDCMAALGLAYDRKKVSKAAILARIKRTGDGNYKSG
Description: Human SCD-1 enzyme activity using HepG2 cell microsomes after treating with inhibitory compounds (% inhibition):
Human hepatocarcinoma HepG2 cells (ATCC, HB-8065) are cultured to confluence and trypsinised. The cell pellet is taken up with 10 mM Tris (pH 7.4) sucrose (250 mM) DTT (1 mM) buffer and the cells are lysed by sonication. The microsomes are obtained after centrifugation at 10,000 g for 20 minutes at 4° C. followed by centrifugation of the supernatant at 100,000 g for 60 minutes at 4° C. The pellet is taken up with 10 mM Tris (pH 7.4) sucrose (250 mM) buffer at 4° C. and the microsomal proteins are assayed and stored at −196° C. (liquid nitrogen).
The enzyme reaction measures the conversion of stearic acid (C18:0 fatty acid) to oleic acid (C18:1 fatty acid) by SCD-1. The enzyme reaction is started by adding 125 μg of HepG2 cell microsomal fraction to tubes (total reaction volume of 500 μl) containing 62 μM of stearic acid (45 μM of stearic acid 17 μM of [^14C] stearic acid) in a 100 mM phosphate buffer (pH 7.16) with 7.2 mM of ATP, 0.54 mM of CoA, 6 mM of MgCl2, 0.8 mM of NADH and the inhibitory compound or the vehicle (0.1% DMSO). The tubes are incubated for 20 minutes at 37° C. and the enzyme reaction is stopped by adding KOH (12%) and saponification for 30 minutes at 80° C. After acidification (3N HCl), the fatty acids are extracted twice with ethyl ether, evaporated in nitrogen before being taken up with methanol/dichloromethane (3:1). The reaction product (C18:1) is separated from the reaction substrate (C18:0) by HPLC (Perkin Elmer, C18 reverse phase column) coupled with an online radioactivity detector (FlowOne). The enzyme activity is calculated in picomoles of stearic acid converted into oleic acid per minute and per mg of protein. For each inhibitory compound, an IC50 is determined in relation to the reference enzyme activity (0.1% DMSO vehicle). Sterculic acid is the reference inhibitory compound (Gomez F. E., Bauman D. E., Ntambi J. M., Fox B. G. Effects of sterculic acid on stearoyl-CoA desaturase in differentiating 3T3-L1 adipocytes. Biochem Biophys Res Commun. 300 316-326 (2003).

[2] = test system: sebaceous glands; assay: Topical application of SCD-1 inhibitory compounds to NMRI mice: reduction in number and size of sebaceous glands; format: in vivo; conditions: Mus musculus, 120 h, twice daily, treatment time 5 days; for inhibition in vivo at 0.3 %: concentration 0.3%; for inhibition in vivo at 1 %: concentration 1%
Description: Topical application of SCD-1 inhibitory compounds to NMRI mice: reduction in number and size of sebaceous glands.
Experimental protocol: Crl:NMRI male mice (24-26 g) are shaved (2×2 cm^2 minimum) 2-3 days before the first application of molecules under test. To prevent potential oral intake of the molecules, the animals are accommodated individually.
The molecules are solubilised in the ethanol/propylene glycol (30/70, v/v) vehicle are a maximum concentration of 1%. 50 μl of each preparation (molecule under test, or vehicle) are applied twice daily for 5 consecutive days on the 2 cm^2 shaved area, with the cone of a pipette with a number of to-and-fro movements. At least 6 hours after the final application, the mice are euthanised, the skin samples are taken and fixed immediately to produce paraffin sections; a histomorphometric analysis after Haematoxylin/Eosin staining is carried out.
For each animal, at least 3 sections approximately 10 mm in length are read blind by 3 people, and the efficacy of the molecules on sebaceous gland atrophy is assessed quantitatively (number) and qualitatively (relative score, size). The duration of action, the reversibility of the effect are verified in the same way by modifying the application sequences.

[3] = test system: HCT-116 tumour cells; assay: Cytotoxic / anti-proliferation activity on human colon cancer cell line HCT-116 (ATP-lite); format: cell-based; conditions: 72 hours
Description: Cytotoxic activities with respect to human colon cancer cell lines (HCT-116):
HCT-116 tumour cells are inoculated in a 96-well plate in RPMI 1640 medium to which 5% foetal calf serum is added (100 μl/well, respectively at 1.5 10^4 cells/ml). After 24 hours of incubation at 37° C. in an incubator at 5% CO2, 11 μl of medium containing the compound under test at a concentration 10 times greater than the final concentration are added. The plates are incubated for a further 72 hours. Cell survival is evaluated by measuring the luminescence after releasing ATP in the medium using the cell lysis, luciferase and luciferin solutions contained in the ATP-lite-M™ kit as recommended by the manufacturer (Packard, Rungis, France). Each experimental condition was replicated at least three times independently with one well reading in sextuplet per dose interval.

[4] = HCT-116, HTC116 human tumour line, read-out: EC50 (anti-proliferation activity)
[5] = Homo sapiens, HCT-116 tumour line cells, read-out: 50% inhibitory concentration (EC50), concentration inhibiting cell proliferation by 50%

Row | IC50 [1] | SMILES | other results
1 | 100 to 300 nM | Cn1cc(Cl)nc(N2CCC(Oc3ccccc3C(F)(F)F)CC2)c1=O [Example 7, 5-Chloro-1-methyl-3-[4-(2-trifluoromethyl-phenoxy)-piperidin-1-yl]-1H-pyrazin-2-one] | inhibition in vivo at 0.3 % [2]: 75%
2 | 100 nM | Cc1cnnc(N2CCC(Oc3cc(F)ccc3Cl)CC2)n1 [Example 25, 3-[4-(2-Chloro-5-fluoro-phenoxy)-piperidin-1-yl]-5-methyl-[1,2,4]triazine] | 
3 | 30 to 100 nM | O=[N+]([O-])c1ccc(Cl)c(OC2CCN(c3nccnn3)CC2)c1 [Example 32, 3-[4-(2-Chloro-5-nitro-phenoxy)-piperidin-1-yl]-[1,2,4]triazine] | 
4 | 100 to 1000 nM | O=[N+]([O-])c1ccccc1OC1CCN(c2nccnn2)CC1 [Example 35, 3-[4-(2-Nitro-phenoxy)-piperidin-1-yl]-[1,2,4]triazine] | 
5 | 100 to 1000 nM | CC1CN(c2nccnn2)CCC1Oc1cc(C(F)(F)F)ccc1Cl (stereo not drawn) [Example 37, 3-[4-(2-Chloro-5-trifluoromethyl-phenoxy)-3-methyl-piperidin-1-yl]-[1,2,4]triazine] | 
6 | 100 to 300 nM | Cn1nccc(N2CCC(Oc3cc(C(F)(F)F)ccc3Cl)CC2)c1=O [Example 40, 4-[4-(2-Chloro-5-trifluoromethyl-phenoxy)-piperidin-1-yl]-2-methyl-2H-pyridazin-3-one] | inhibition in vivo at 0.1 % ([2]; concentration 0.1%): 36%
7 | 300 to 1000 nM | FC(F)(F)c1ccc(Cl)c(OC2CCN(c3nccnn3)C2)c1 (stereo not drawn) [Example 42, 3-[3-(2-Chloro-5-trifluoromethyl-phenoxy)-pyrrolidin-1-yl]-[1,2,4]triazine] | 

More lines, now with the values behind:

Row | SMILES | IC50 [1] | other results
8 | Cn1cc(Cl)nc(N2CCC(Oc3ccccc3Cl)CC2)c1=O [Example 6, 5-Chloro-3-[4-(2-chloro-phenoxy)-piperidin-1-yl]-1-methyl-1H-pyrazin-2-one] | 100 to 1000 nM | inhibition in vivo at 0.3 % [2]: 79%
9 | Cn1cc(Cl)nc(N2CCC(Oc3cc(C(F)(F)F)ccc3Cl)CC2)c1=O [Example 8] | 100 to 300 nM | inhibition in vivo at 0.3 % [2]: 95%
10 | Cc1ccccc1OC1CCN(c2nc(Cl)cn(C)c2=O)CC1 [Example 9, 5-Chloro-1-methyl-3-(4-o-tolyloxy-piperidin-1-yl)-1H-pyrazin-2-one] | 100 to 1000 nM | inhibition in vivo at 0.3 % [2]: 43%
11 | Cn1ccnc(N2CCC(Oc3ccccc3C(F)(F)F)CC2)c1=O [Example 11, 1-Methyl-3-[4-(2-trifluoromethyl-phenoxy)-piperidin-1-yl]-1H-pyrazin-2-one] | 100 nM | inhibition in vivo at 1 % [2]: 45%
12 | Cn1cc(Cl)nc(N2CCC(Oc3cc(F)ccc3Cl)CC2)c1=O [Example 12, 5-Chloro-3-[4-(2-chloro-5-fluoro-phenoxy)-piperidin-1-yl]-1-methyl-1H-pyrazin-2-one] | 10 to 30 nM | inhibition in vivo at 0.3 % [2]: 94%; EC50 [3, 4]: 60 nM; EC50 [3, 5]: 60 nM
13 | Clc1ccccc1OC1CCN(c2nccnn2)CC1 [Example 13, 3-[4-(2-Chloro-phenoxy)-piperidin-1-yl]-[1,2,4]triazine] | 100 to 1000 nM | 
14 | FC(F)(F)c1ccccc1OC1CCN(c2nccnn2)CC1 [Example 14, 3-[4-(2-Trifluoromethyl-phenoxy)-piperidin-1-yl]-[1,2,4]triazine] | 100 to 1000 nM | 
15 | FC(F)(F)c1ccc(Cl)c(OC2CCN(c3nccnn3)CC2)c1 [Example 17, 3-[4-(2-Chloro-5-trifluoromethyl-phenoxy)-piperidin-1-yl]-[1,2,4]triazine] | 100 nM | inhibition in vivo at 1 % [2]: 97%; EC50 [3, 4]: 230 nM; EC50 [3, 5]: 230 nM
16 | Fc1ccc(Cl)c(OC2CCN(c3nccnn3)CC2)c1 [Example 18, 3-[4-(2-Chloro-5-fluoro-phenoxy)-piperidin-1-yl]-[1,2,4]triazine] | 30 nM | 
17 | Cc1nnc(N2CCC(Oc3cc(C(F)(F)F)ccc3Cl)CC2)nc1C [Example 19, 3-[4-(2-Chloro-5-trifluoromethyl-phenoxy)-piperidin-1-yl]-5,6-dimethyl-[1,2,4]triazine] | 100 to 1000 nM | 
18 | Cc1cnnc(N2CCC(Oc3cc(C(F)(F)F)ccc3Cl)CC2)n1 [Example 27, 3-[4-(2-Chloro-5-trifluoromethyl-phenoxy)-piperidin-1-yl]-5-methyl-[1,2,4]triazine] | 300 nM | 
19 | Cc1cnnc(N2CCC(Oc3ccccc3Cl)CC2)n1 [Example 28, 3-[4-(2-Chloro-phenoxy)-piperidin-1-yl]-5-methyl-[1,2,4]triazine] | 300 to 1000 nM | 
20 | Cc1cnc(N2CCC(Oc3cc(F)ccc3Cl)CC2)nn1 [Example 30, 3-[4-(2-Chloro-5-fluoro-phenoxy)-piperidin-1-yl]-6-methyl-[1,2,4]triazine] | 100 nM | 
21 | Fc1cc(Br)c(OC2CCN(c3nccnn3)CC2)cc1F [Example 33, 3-[4-(2-Bromo-4,5-difluoro-phenoxy)-piperidin-1-yl]-[1,2,4]triazine] | 10 to 100 nM | 
22 | FC(F)(F)c1ccccc1NC1CCN(c2nccnn2)CC1 [Example 36] | 30 nM | 
23 | CC1CN(c2nccnn2)CCC1Oc1cc(Cl)ccc1Cl (stereo not drawn) [Example 38, 3-[4-(2,5-Dichloro-phenoxy)-3-methyl-piperidin-1-yl]-[1,2,4]triazine] | 300 to 1000 nM | 
24 | CCCCCCCCC1=C(CCCCCCCC(=O)O)C1 [Sterculic acid, reference compound] | 300 nM | 
